According to PubChem BioAssay AID330 (DTP/NCI, 2004):
Where “and” joins values, the source holds several entries; their conditions need not be identical. Identical values can stand only once. Inconclusive results and toxic doses are left out.

Test system: P388 leukemia ip, CD2F1 mice, survival T/C
Experiment: NCI In Vivo Anticancer Drug Screen. Data for tumor model P388 Leukemia (intraperitoneal) in CD2F1 (CDF1) mice
Conditions: endpoint: median survival time, higher = longer survival
How it was run: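 Mice carrying the transplanted tumor received test compound or vehicle. Survival was recorded in each group, and the value is the treated-group measurement divided by that of the vehicle-treated control group.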

[1] = dose: 50.0 mg/kg/injection, schedule: Q01DX009 (ip), vehicle: saline with Tween-80
[2] = dose: 100.0 mg/kg/injection, schedule: Q01DX009 (ip), vehicle: saline with Tween-80
[3] = dose: 50.0 mg/kg/injection, schedule: Q01DX009 (ip), vehicle: Klucel (hydroxypropylcellulose) (HPC)
[4] = dose: 12.5 mg/kg/injection, schedule: Q01DX009 (ip), vehicle: Klucel (hydroxypropylcellulose) (HPC)
[5] = dose: 25.0 mg/kg/injection, schedule: Q01DX009 (ip), vehicle: Klucel (hydroxypropylcellulose) (HPC)
[6] = dose: 50.0 mg/kg/injection, schedule: Q01DX005 (ip), vehicle: Klucel (hydroxypropylcellulose) (HPC)
[7] = dose: 100.0 mg/kg/injection, schedule: Q01DX005 (ip), vehicle: Klucel (hydroxypropylcellulose) (HPC)
[8] = dose: 50.0 mg/kg/injection, schedule: Q01DX009 (ip), vehicle: saline
[9] = dose: 100.0 mg/kg/injection, schedule: Q01DX009 (ip), vehicle: saline
[10] = dose: 200.0 mg/kg/injection, schedule: Q01DX009 (ip), vehicle: saline

O=c1[nH]c(CNCCO)nc2sc3c(c12)CCCC3
T/C [1]: 100 % of control | T/C [2]: 105 % of control | T/C (dose: 200.0 mg/kg/injection, schedule: Q01DX009 (ip), vehicle: saline with Tween-80): 96 % of control

Cc1ccc(C)c(NC(=O)Nc2ccc(CCO)cc2)c1
T/C [3]: 102 % of control | T/C (dose: 100.0 mg/kg/injection, schedule: Q01DX009 (ip), vehicle: Klucel (hydroxypropylcellulose) (HPC)): 102 % of control | T/C (dose: 200.0 mg/kg/injection, schedule: Q01DX009 (ip), vehicle: Klucel (hydroxypropylcellulose) (HPC)): 99 % of control

COc1ccc2nc(C)cc(N/N=C/c3cccnc3)c2c1
T/C (dose: 6.25 mg/kg/injection, schedule: Q01DX009 (ip), vehicle: Klucel (hydroxypropylcellulose) (HPC)): 101 % of control | T/C [4]: 104 % of control | T/C [5]: 113 % of control

N#CC1N(C(=O)Oc2ccccc2)c2ccccc2N1C(=O)Oc1ccccc1
T/C (dose: 7.5 mg/kg/injection, schedule: Q01DX005 (ip), vehicle: saline with Tween-80): 92 % of control | T/C (dose: 15.0 mg/kg/injection, schedule: Q01DX005 (ip), vehicle: saline with Tween-80): 91 % of control

Nc1ncnc2ncn(CC(O)CN(CCO)CCO)c12 (stereo not given)
T/C (dose: 60.0 mg/kg/injection, schedule: Q01DX005 (ip), vehicle: Klucel (hydroxypropylcellulose) (HPC)): 100 % of control | T/C (dose: 120.0 mg/kg/injection, schedule: Q01DX005 (ip), vehicle: Klucel (hydroxypropylcellulose) (HPC)): 97 % of control | T/C (dose: 240.0 mg/kg/injection, schedule: Q01DX005 (ip), vehicle: Klucel (hydroxypropylcellulose) (HPC)): 95 % of control

CCOC(=O)Nc1ccc2nc(N3CCCCC3)sc2c1
T/C [1]: 96 % of control | T/C [2]: 90 % of control

NC(CSS(=O)(=O)O)C(=O)O (stereo not given)
T/C (dose: 50.0 mg/kg/injection, schedule: Q01DX005 (ip), vehicle: saline): 101 % of control | T/C (dose: 100.0 mg/kg/injection, schedule: Q01DX005 (ip), vehicle: saline): 106 % of control | T/C (dose: 200.0 mg/kg/injection, schedule: Q01DX005 (ip), vehicle: saline): 101 % of control

CCOC(=O)C1=C(C)NC(=O)NC1c1cccc(OC)c1O (stereo not given)
T/C [6]: 94 % of control | T/C [7]: 91 % of control | T/C (dose: 200.0 mg/kg/injection, schedule: Q01DX005 (ip), vehicle: Klucel (hydroxypropylcellulose) (HPC)): 97 % of control

CC(=O)OC1C(=O)OCC1C(=O)N1Cc2cc3ccccc3nc2C1 (stereo not given)
T/C (dose: 100.0 mg/kg/injection, schedule: Q01DX001 (ip), vehicle: saline with Tween-80): 104 % of control | T/C (dose: 200.0 mg/kg/injection, schedule: Q01DX001 (ip), vehicle: saline with Tween-80): 101 % of control | T/C (dose: 400.0 mg/kg/injection, schedule: Q01DX001 (ip), vehicle: saline with Tween-80): 105 % of control

C=CCN1C(=O)[N+](C)(C)N=C1[O-]
T/C (dose: 100.0 mg/kg/injection, schedule: Q04DX003 (ip), vehicle: saline): 106 % of control | T/C (dose: 200.0 mg/kg/injection, schedule: Q04DX003 (ip), vehicle: saline): 106 % of control | T/C (dose: 400.0 mg/kg/injection, schedule: Q04DX003 (ip), vehicle: saline): 101 % of control

O=C1C(=O)c2cccc([N+](=O)[O-])c2-c2ccccc21
T/C (dose: 12.5 mg/kg/injection, schedule: Q01DX005 (ip), vehicle: saline with Tween-80): 104 % of control and 106 % of control | T/C (dose: 25.0 mg/kg/injection, schedule: Q01DX005 (ip), vehicle: saline with Tween-80): 101 % of control and 115 % of control | T/C (dose: 50.0 mg/kg/injection, schedule: Q01DX005 (ip), vehicle: saline with Tween-80): 107 % of control and 118 % of control | T/C (dose: 100.0 mg/kg/injection, schedule: Q01DX005 (ip), vehicle: saline with Tween-80): 104 % of control (2×) and 95 % of control

CC(=O)Cc1cc(-c2cc(CC(C)=O)[nH]n2)n[nH]1
T/C (dose: 60.0 mg/kg/injection, schedule: Q01DX005 (ip), vehicle: saline): 98 % of control | T/C (dose: 120.0 mg/kg/injection, schedule: Q01DX005 (ip), vehicle: saline): 95 % of control | T/C (dose: 240.0 mg/kg/injection, schedule: Q01DX005 (ip), vehicle: saline): 102 % of control

N=C1C=C(N)CS1
T/C [8]: 87 % of control | T/C [9]: 86 % of control | T/C [10]: 88 % of control

NC(=O)c1c(N)nn2c(-c3ccccc3)cc(-c3ccccc3)cc12
T/C (dose: 100.0 mg/kg/injection, schedule: Q01DX001 (ip), vehicle: Klucel (hydroxypropylcellulose) (HPC)): 86 % of control | T/C (dose: 400.0 mg/kg/injection, schedule: Q01DX001 (ip), vehicle: Klucel (hydroxypropylcellulose) (HPC)): 94 % of control

O=C1NC(=O)N(C(F)(F)F)C(F)(F)N1C(F)(F)F
T/C [6]: 107 % of control | T/C [7]: 107 % of control

Cc1cc2ccccc2c2nncn12
T/C [1]: 103 % of control | T/C [2]: 103 % of control

O=c1[nH]c(=S)ccn1C1OC(CO)C(O)C1O (stereo not given)
T/C [8]: 97 % of control | T/C [9]: 101 % of control | T/C [10]: 93 % of control

Cc1cc(Cl)ccc1N=Cc1ccc(C=Nc2ccc(Cl)cc2C)cc1
T/C [4]: 94 % of control | T/C [5]: 95 % of control | T/C [3]: 99 % of control
